Source: patent publication US7829528B2, “Compositions and methods for treating STAT-6 associated diseases or conditions” (The Rockefeller University, priority 2004, dated 2010)
Where no end group is shown, it is not given here.

What was measured:
[1] = test system: ovalbumin-sensitized mice; experiment: Airway hyperresponsiveness to methacholine (respiratory system resistance, FlexiVent); type: in vivo, BALB/c mice
Experimental: Six-to-eight week-old male BALB/c mice were obtained from Harlan-Sprague Dawley (Indianapolis, Ind.) and were housed in a conventional animal facility. For each experimental condition, a minimum of 6-8 animals was used. Awake animals were sensitized five days per week for each of two weeks by instillation in each nostril of 5 μL 1% ovalbumin in PBS. Alternatively, animals were sensitized by two weekly systemic, i.p. injections of 0.025% ovalbumin mixed with 4 mg/mL Al(OH)3. Following two weeks rest, animals were challenged for five days by intranasal instillation of 1% ovalbumin. Animals treated with peptides received the STAT-6-IP (15, 50, or 150 μg) or STAT-6-CP (50 or 150 μg) in 10 μL PBS 30 minutes prior to each ovalbumin challenge. Twenty-four hours after the last ovalbumin challenge, mice were deeply anaesthetized with xylazine and sodium pentobarbital and paralyzed with pancuronium bromide. The tail vein was cannulated for drug administration and heart rate was monitored by EKG. The trachea was exposed, a cannula inserted and secured with silk ties and then attached to a computer-controlled small-animal ventilator (FlexiVent; SCIREQ, Montreal, Quebec). Mice were ventilated quasi-sinusoidally with a tidal volume of 8 mL/kg and respiratory rate of 150 breaths/minute. Respiratory system resistance was measured. Airway hyperresponsiveness was by low dose methacholine. Methacholine was injected through the tail vein at dose of 10, 20, 40, 80, 160, 320 μg/kg and the maximal resistance and elastance were recorded. Afterward, the trachea was isolated and a 22-gauge stainless steel catheter was inserted into the proximal trachea and secured with 4-0 silk suture. The lungs were lavaged using 0.5 mL of ice cold 0.9% NaCl. The bronchoalveolar lavage (BAL) fluid was centrifuged to remove intact cells and the supernatant stored at −20° C. for IL-13 analysis by ELISA. […] Six fields were counted, each encompassing 100 cells per slide, and means obtained.

IFN-gamma mRNA = experiment: Semiquantitative RT-PCR of IFN-gamma mRNA in splenocytes; type: cell-based, BALB/c mice; details: splenocytes cultured with ovalbumin plus peptide
Experimental: The levels of mRNA encoding IL-4, IL-13 and IFN-gamma were also evaluated by semiquantitative RT-PCR analysis. Ovalbumin-induced expression of both IL-4 and IL-13 mRNA was inhibited in splenocytes cultured with the STAT-6-IP and not the STAT-6-CP. […] The number of CD4+ T cells producing IL-4 was also quantified by intracellular cytokine staining. When splenocytes from ovalbumin-sensitized mice were cultured with ovalbumin, there was a significant increase in the number of CD4+ lymphocytes expressing IL-4 (Table 4). The increase in IL-4 expression was abrogated in splenocytes cultured with ovalbumin in the presence of the STAT-6-IP, while the STAT-6-CP had no effect.
Reverse transcriptase (RT)-PCR was used to monitor expression of mRNAs encoding IL-4, IL-13 and IFN-gamma. Materials for RNA extraction and RT-PCR were purchased from INVITROGEN™ Canada (Burlington, Ontario). Total RNA was extracted from splenocytes, treated with DNAse, and 1 μg of RNA was reverse transcribed into cDNA using SUPERSCRIPT™ II reverse transcriptase. […] PCR products were resolved by gel electrophoresis and visualized and quantified on a FLUORCHEM™ 8000 Imaging System (Alpha Innotech, San Leandro, Calif.) using ALPHAEASE™ software (Alpha Innotech). […]

[2] = test system: ovalbumin-sensitized mice; experiment: Allergen-induced accumulation of granulocytes in bronchoalveolar lavage (BAL) fluid; type: in vivo, BALB/c mice
Text: In the combined allergic rhinitis and asthma model, non-anaesthetized mice are locally sensitized with ovalbumin intranasally (i.n.), the primary route of allergen exposure in man (McCusker, et al. (2002) supra). Normal saline was used as a control. In both models sensitized mice produce ovalbumin-specific IgE and upon i.n. ovalbumin challenge, develop inflammation and eosinophilia in both the upper and lower airways as well as IL-13-dependent airway hyperresponsiveness (McCusker, et al. (2002) supra; Wang and McCusker (2005) Clin. Exp. Allergy 35(8):1104-11). Thus, in each model of allergic airway disease, the STAT-6-IP or control STAT-6-CP was given locally, i.n., to non-anaesthetized, ovalbumin-sensitized mice prior to each of five daily allergen challenges. Consistent with its ability to inhibit STAT-6-dependent activity in vitro, the STAT-6-IP inhibited allergen-induced accumulation of granulocytes in the lung, quantified in bronchoalveolar lavage (BAL) fluid, independent of the site of sensitization (Table 5).
Six-to-eight week-old male BALB/c mice were obtained from Harlan-Sprague Dawley (Indianapolis, Ind.) and were housed in a conventional animal facility. For each experimental condition, a minimum of 6-8 animals was used. Awake animals were sensitized five days per week for each of two weeks by instillation in each nostril of 5 μL 1% ovalbumin in PBS. Alternatively, animals were sensitized by two weekly systemic, i.p. injections of 0.025% ovalbumin mixed with 4 mg/mL Al(OH)3. Following two weeks rest, animals were challenged for five days by intranasal instillation of 1% ovalbumin. […] The tail vein was cannulated for drug administration and heart rate was monitored by EKG. […] Respiratory system resistance was measured. […] Methacholine was injected through the tail vein at dose of 10, 20, 40, 80, 160, 320 μg/kg and the maximal resistance and elastance were recorded. […] Six fields were counted, each encompassing 100 cells per slide, and means obtained.

IL-13 = IL-13 in the BAL fluid (ELISA); type: in vivo, BALB/c mice; details: 150 μg peptide prior to each ovalbumin challenge; ovalbumin control 84.95, normal saline 55.67
Experimental: Six-to-eight week-old male BALB/c mice were obtained from Harlan-Sprague Dawley (Indianapolis, Ind.) and were housed in a conventional animal facility. For each experimental condition, a minimum of 6-8 animals was used. Awake animals were sensitized five days per week for each of two weeks by instillation in each nostril of 5 μL 1% ovalbumin in PBS. Alternatively, animals were sensitized by two weekly systemic, i.p. injections of 0.025% ovalbumin mixed with 4 mg/mL Al(OH)3. Following two weeks rest, animals were challenged for five days by intranasal instillation of 1% ovalbumin. Animals treated with peptides received the STAT-6-IP (15, 50, or 150 μg) or STAT-6-CP (50 or 150 μg) in 10 μL PBS 30 minutes prior to each ovalbumin challenge. Twenty-four hours after the last ovalbumin challenge, mice were deeply anaesthetized with xylazine and sodium pentobarbital and paralyzed with pancuronium bromide. The tail vein was cannulated for drug administration and heart rate was monitored by EKG. […] Respiratory system resistance was measured. […] Methacholine was injected through the tail vein at dose of 10, 20, 40, 80, 160, 320 μg/kg and the maximal resistance and elastance were recorded. […] Six fields were counted, each encompassing 100 cells per slide, and means obtained.

“YARAAARQARAGRGFVSTT [STAT-6-CP, STAT-6 Tyr-641 mutant, control peptide]” was tested, and the “Response Rmax (cm H2O × s/mL ± SEM)” value ([1]; dose response, 150 μg peptide, ovalbumin control 2.02, normal saline 1.41) was 2.53 (±0.31) cm H2O × s/mL, the “Response Rmax (cm H2O × s/mL ± SEM)” value ([1]; i.n. ovalbumin sensitization, 50 microgram peptide, ovalbumin control 1.92, normal saline 1.19) was 1.80 ± 0.07 cm H2O × s/mL and the “Response Rmax (cm H2O × s/mL ± SEM)” value ([1]; i.p. ovalbumin sensitization, 50 microgram peptide, ovalbumin control 1.87, normal saline 1.19) was 1.85 ± 0.06 cm H2O × s/mL. The “Expression of IFN-gamma mRNA” value (IFN-gamma mRNA) was “did not change”, the “Granulocytes/100 counted from BAL (±SEM)” value ([2]; dose response, 150 μg peptide, ovalbumin control 22.33, normal saline 5.00) was 21.42 ± 1.56 Granulocytes/100 counted and the “Granulocytes/100 counted from BAL (±SEM)” value ([2]; i.n. ovalbumin sensitization, 50 microgram peptide i.n. prior to each ovalbumin challenge, ovalbumin control 26.73) was 22.27 (±0.60) Granulocytes/100 counted. For the same sequence, the “Granulocytes/100 counted from BAL (±SEM)” value ([2]; i.p. ovalbumin sensitization, 50 microgram peptide i.n. prior to each ovalbumin challenge, ovalbumin control 37.57) was 34.75 (±0.68) Granulocytes/100 counted and the “IL-13, pg/mL (±SEM), BAL fluid” value (IL-13) was 75.75 (±5.60) pg/mL.
